Measurements taken from patent EP4610262A1, “MACROCYCLIC COMPOUND AS CDK9 INHIBITOR AND USE THEREOF” (Artivila Biopharma, priority 2022, dated 2024).
Where two headings read alike, the source gives them in different places.

What was measured:
CDK9 = CDK9 (Homo sapiens, UniProt P50750); experiment: Inhibition of CDK9 kinase activity (caliper mobility shift assay); type: biochemical; details: for IC50: 10 concentrations from 10 µM, three-fold dilutions; for inhibition at 0.01 µM: compound at 10 nM
Chain of CDK9 (P50750 whole entry): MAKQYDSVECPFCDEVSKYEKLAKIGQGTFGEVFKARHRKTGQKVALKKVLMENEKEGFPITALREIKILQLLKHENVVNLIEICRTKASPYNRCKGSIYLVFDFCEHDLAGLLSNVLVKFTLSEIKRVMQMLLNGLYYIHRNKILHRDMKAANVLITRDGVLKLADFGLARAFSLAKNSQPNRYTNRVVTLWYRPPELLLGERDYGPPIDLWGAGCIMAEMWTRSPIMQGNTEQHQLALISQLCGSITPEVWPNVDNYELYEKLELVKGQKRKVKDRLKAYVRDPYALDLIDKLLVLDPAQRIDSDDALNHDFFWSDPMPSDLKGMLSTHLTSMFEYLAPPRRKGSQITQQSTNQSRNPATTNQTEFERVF
Chain of CDK9 (O60563 whole entry partner): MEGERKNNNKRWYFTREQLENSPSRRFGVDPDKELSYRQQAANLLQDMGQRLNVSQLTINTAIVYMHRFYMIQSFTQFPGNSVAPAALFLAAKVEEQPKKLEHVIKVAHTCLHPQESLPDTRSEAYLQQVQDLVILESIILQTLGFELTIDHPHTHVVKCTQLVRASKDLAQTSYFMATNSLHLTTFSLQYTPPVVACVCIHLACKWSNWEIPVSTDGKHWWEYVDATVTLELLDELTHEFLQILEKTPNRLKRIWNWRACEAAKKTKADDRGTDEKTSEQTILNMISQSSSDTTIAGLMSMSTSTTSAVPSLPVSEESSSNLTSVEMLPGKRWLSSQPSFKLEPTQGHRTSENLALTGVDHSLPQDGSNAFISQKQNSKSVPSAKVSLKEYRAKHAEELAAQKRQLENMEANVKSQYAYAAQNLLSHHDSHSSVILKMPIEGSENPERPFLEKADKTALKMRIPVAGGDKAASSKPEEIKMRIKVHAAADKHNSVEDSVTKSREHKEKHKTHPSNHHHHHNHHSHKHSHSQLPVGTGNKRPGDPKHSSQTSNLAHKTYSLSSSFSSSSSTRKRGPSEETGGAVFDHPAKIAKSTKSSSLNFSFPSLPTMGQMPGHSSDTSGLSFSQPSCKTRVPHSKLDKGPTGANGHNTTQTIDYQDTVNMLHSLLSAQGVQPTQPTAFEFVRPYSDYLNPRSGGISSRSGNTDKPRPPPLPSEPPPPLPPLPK
Procedure: (§1) Compounds were tested at a concentration of 10 nM with detection in duplicate wells, or tested at 10 concentrations starting from 10 µM with three-fold serial dilutions, with detection in duplicate wells.
(§2) The inhibitory effect of the compounds on the activity of CDK9 protein kinase was detected by the caliper mobility shift assay method. 250 nL of the compound at 100-fold final concentration was transferred to a target 384-well-plate with a dispenser Echo 550. A kinase solution at 2.5-fold final concentration was prepared using 1× kinase buffer. 10 µL of the kinase solution at 2.5-fold final concentration was added to the compound well and positive control well respectively. 10 µL of 1× kinase buffer was added to the negative control well. The 384-well plate was centrifuged at 1000 rpm for 30 seconds and incubated at room temperature for 10 minutes. A mixed solution of ATP and kinase substrate at 5/3-fold final concentration was prepared with 1× kinase buffer, and to the 384-well plate was added with 15 µL per well of the mixed solution of ATP and substrate at 5/3-fold final concentration to start the reaction. The plate was centrifuged at 1000 rpm for 30 seconds, shaken to mix evenly, and incubated at room temperature for a corresponding time. 30 µL of detection stopping solution was added to terminate the kinase reaction. The 384-well plate was centrifuged at 1000 rpm for 30 seconds and shaken to mix evenly. The conversion rate was read with Caliper EZ Reader. The percent conversion inhibition rate = (% positive control conversion rate mean - % sample conversion rate / (% positive control conversion rate mean - % negative control conversion rate mean). Among them: negative control wells represent the conversion rate readings of kinase buffer background wells; positive control wells represent the conversion rate readings of wells without inhibition by compound. With the log value of concentration as the x-axis and the percentage inhibition rate as the y-axis, a dose-response curve was fitted using the log (inhibitor) vs. response -Variable slope of the analysis software GraphPad Prism 5 to obtain the IC50 value of each compound on enzyme activity. Calculation formula: y=Bottom + (Top-Bottom)/(1+10^((LogIC50-x) × hillslope)), x: logarithm of inhibitor concentration; y: % inhibition rate.

A375 = experiment: CDK9 cell activity assay, cell growth inhibition (CellTiter-Glo, 72 hours); type: cell-based; details: Homo sapiens, A-375
Procedure: (§3) In the CDK9 cell activity assay, the cell line MV-4-11 was cultured in IMDM culture medium containing 10% fetal bovine serum (containing 100 U/mL penicillin and 0.1 g/L streptomycin); the cell line HCC1187 was cultured in RPMI-1640 culture medium containing 10% fetal bovine serum (containing 100 U/mL penicillin and 0.1 g/L streptomycin); the cell line Mia Paca-2 was cultured in DMEM containing 10% fetal bovine serum and 2.5% horse serum (containing 100 U/mL penicillin and 0.1 g/L streptomycin); and the cell line A375 was cultured in RPMI-1640 culture medium containing 10% fetal bovine serum (containing 100 U/mL penicillin and 0.1 g/L streptomycin). All cells were cultured in an incubator with saturated humidity at 37°C with 5% CO2.
(§4) When MV-4-11 cells, HCC1187 cells, Mia Paca-2 cells, and A375 cells grew to 80%-90% confluence, they were digested with trypsin, resuspended, counted, and diluted to a certain cell density with complete medium. 100 µL of the cells was plated into each well of a 96-well plate, and the complete medium was used as a background control. The cells were cultured overnight in an incubator with saturated humidity at 37°C with 5% CO2. The compounds were diluted with DMSO to a final concentration of 200×. 3 µL of the stock solution of the above compounds in DMSO was added to 197 µL of complete medium, and 50 µL of the compound diluted in the medium was added to the cells of each well. The cells were cultured in an incubator with saturated humidity at 37°C with 5% CO2 for 72 hours. After 72 hours, the culture plates were placed at room temperature for equilibrium. 40 µL of CellTiter-Glo® reagent was added to each well. The plate was mixed evenly on a shaker for 2 minutes to lyse the cells then incubated at room temperature for 60 minutes to stabilize the chemiluminescent signal, and the chemiluminescence was read using a PE EnVision microplate reader. The inhibition rate on cell growth was calculated as % Inh = (DMSO well - compound treatment well) / (DMSO well - background well) x 100, and fitting was performed using GraphPad Prism 5 to obtain the IC50 values against cell growth.

HCC1187 = experiment: as above; type: cell-based; details: Homo sapiens
Procedure: as §3, §4

MV-4-11 = experiment: as above; type: cell-based; details: Homo sapiens, MV4-11
Procedure: as §3, §4

Mia-Paca-2 = experiment: as above; type: cell-based; details: Homo sapiens
Procedure: as §3, §4

JAK1 = JAK1 (Homo sapiens, UniProt P23458); experiment: Kinase selectivity, inhibition rate at 10 nM (caliper mobility shift assay); type: biochemical; details: compound at 10 nM
Chain of JAK1 (P23458 whole entry): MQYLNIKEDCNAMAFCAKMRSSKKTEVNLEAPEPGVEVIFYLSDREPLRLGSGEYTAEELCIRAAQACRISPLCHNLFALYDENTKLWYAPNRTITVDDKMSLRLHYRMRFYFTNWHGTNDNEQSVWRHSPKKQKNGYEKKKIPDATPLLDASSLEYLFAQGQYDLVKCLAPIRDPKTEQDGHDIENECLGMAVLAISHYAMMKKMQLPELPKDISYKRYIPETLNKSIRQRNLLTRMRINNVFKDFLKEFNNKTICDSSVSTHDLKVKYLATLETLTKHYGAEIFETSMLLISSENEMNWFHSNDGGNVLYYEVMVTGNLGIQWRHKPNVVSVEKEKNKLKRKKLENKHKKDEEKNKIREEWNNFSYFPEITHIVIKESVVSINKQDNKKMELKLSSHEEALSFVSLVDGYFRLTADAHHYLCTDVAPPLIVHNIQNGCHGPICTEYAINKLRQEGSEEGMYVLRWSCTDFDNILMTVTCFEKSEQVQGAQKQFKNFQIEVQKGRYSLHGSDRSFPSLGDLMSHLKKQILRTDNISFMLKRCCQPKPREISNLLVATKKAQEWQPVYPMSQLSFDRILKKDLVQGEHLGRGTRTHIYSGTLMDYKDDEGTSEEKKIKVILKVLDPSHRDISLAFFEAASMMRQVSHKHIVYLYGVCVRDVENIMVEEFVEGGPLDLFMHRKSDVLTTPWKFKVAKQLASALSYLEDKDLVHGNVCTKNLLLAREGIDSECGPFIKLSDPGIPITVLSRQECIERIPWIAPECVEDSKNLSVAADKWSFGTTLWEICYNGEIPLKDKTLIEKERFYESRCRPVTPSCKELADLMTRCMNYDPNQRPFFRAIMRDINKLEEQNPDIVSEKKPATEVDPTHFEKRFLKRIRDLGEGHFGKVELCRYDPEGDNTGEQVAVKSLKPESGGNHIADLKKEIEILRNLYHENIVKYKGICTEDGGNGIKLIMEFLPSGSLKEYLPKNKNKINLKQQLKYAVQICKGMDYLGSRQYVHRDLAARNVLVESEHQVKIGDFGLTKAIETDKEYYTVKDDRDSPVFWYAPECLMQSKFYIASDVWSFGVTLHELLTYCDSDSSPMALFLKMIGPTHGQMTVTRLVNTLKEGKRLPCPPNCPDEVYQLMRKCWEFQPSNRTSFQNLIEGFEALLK
Procedure: as §1, §2
(§5) According to the description of the above experiment on kinase activity inhibition, some compounds were tested for their selective inhibition rate against the kinases of CDK7, CDK9, JAK1, JAK2, JAK3, ITK, RET, TYK2, and LRRK2 at 10 nM. The results are shown in Table 3 below: (Inhibition rate range: A>50%; B: 25-49%; C: <25%): […]

JAK2 = JAK2 (Homo sapiens, UniProt O60674); experiment: as above; type: biochemical; details: compound at 10 nM
Chain of JAK2 (O60674 whole entry): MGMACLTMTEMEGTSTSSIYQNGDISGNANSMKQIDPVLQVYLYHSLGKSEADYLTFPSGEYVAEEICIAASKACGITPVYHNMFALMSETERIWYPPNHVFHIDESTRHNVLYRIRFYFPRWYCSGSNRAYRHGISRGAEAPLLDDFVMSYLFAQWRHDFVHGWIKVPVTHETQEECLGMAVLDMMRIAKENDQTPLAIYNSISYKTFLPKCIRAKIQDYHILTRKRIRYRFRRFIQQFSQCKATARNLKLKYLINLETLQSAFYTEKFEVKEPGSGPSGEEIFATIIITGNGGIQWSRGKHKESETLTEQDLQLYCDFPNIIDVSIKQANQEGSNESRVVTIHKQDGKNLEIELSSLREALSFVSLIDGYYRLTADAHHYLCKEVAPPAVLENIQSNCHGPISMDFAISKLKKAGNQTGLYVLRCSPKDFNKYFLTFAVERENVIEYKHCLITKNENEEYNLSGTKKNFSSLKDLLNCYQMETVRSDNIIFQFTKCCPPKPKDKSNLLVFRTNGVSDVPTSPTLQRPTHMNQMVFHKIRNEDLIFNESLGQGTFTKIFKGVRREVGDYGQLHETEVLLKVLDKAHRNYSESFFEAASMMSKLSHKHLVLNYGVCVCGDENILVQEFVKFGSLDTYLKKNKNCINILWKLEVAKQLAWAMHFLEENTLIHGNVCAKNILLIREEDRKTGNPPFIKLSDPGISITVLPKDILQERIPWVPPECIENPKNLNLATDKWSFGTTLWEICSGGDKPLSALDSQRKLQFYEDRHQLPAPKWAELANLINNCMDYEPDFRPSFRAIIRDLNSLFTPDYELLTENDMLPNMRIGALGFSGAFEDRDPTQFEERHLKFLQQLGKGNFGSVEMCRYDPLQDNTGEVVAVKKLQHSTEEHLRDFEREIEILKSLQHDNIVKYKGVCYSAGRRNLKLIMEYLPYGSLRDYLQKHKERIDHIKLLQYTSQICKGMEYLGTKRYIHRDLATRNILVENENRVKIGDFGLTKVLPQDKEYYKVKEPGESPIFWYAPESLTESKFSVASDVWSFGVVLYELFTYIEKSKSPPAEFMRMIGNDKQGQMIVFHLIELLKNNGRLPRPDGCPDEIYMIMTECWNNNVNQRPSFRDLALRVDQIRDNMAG
Procedure: as §1, §2, §5

LRRK2 = LRRK2 (Homo sapiens, UniProt Q5S007); experiment: as above; type: biochemical; details: compound at 10 nM
Procedure: as §1, §2, §5

[1] = read-out: Inhibition rate on CDK9 kinase activity
[2] = selectivity panel Table 3, read-out: Inhibition rate CDK9

IC50 (CDK9)	inhibition at 0.01 µM (CDK9; [1])	IC50 (MV-4-11)	inhibition at 0.01 µM (CDK9; [2])	inhibition at 0.01 µM (JAK1)	inhibition at 0.01 µM (JAK2)	inhibition at 0.01 µM (LRRK2)	SMILES	IC50 (A375)	IC50 (HCC1187)	IC50 (Mia-Paca-2)
< 0.1 µM	> 50%	< 0.25 µM	> 50%	< 25%	< 25%	< 25%	Cc1ccc2cc1-c1nc(ncc1Cl)Nc1cccc(c1)NC/C=C\CN2 [Compound 12, (Z)-2^5-chloro-1^6-methyl-3,5,10-triaza-2(4,2)-pyrimidina-1,4(1,3)-dibenzocyclodecane-7-ene]	< 0.25 µM	< 0.25 µM	< 0.25 µM
< 0.1 µM	25 to 49%	–	25 to 49%	< 25%	< 25%	< 25%	N#Cc1cnc2nc1NCCCCCNCc1cccc(c1)N2 [Compound 15, 2,5,11-triaza-1(2,4)-pyrimidina-3(1,3)-benzenacycloundecaphan-1^5-carbonitrile]	–	–	–
< 0.1 µM	> 50%	< 0.25 µM	> 50%	< 25%	< 25%	–	Clc1cnc2nc1OCCCCCNCc1cccc(c1)N2 [Compound 18, 1^5-chloro-11-oxa-2,5-diaza-1(2,4)-pyrimidina-3(1,3)-benzenacyclodecaphane]	–	–	–

SMILES	IC50 (CDK9)	inhibition at 0.01 µM (CDK9; [1])	IC50 (MV-4-11)	inhibition at 0.01 µM (CDK9; [2])	inhibition at 0.01 µM (JAK1)	inhibition at 0.01 µM (JAK2)	inhibition at 0.01 µM (LRRK2)	IC50 (A375)	IC50 (HCC1187)	IC50 (Mia-Paca-2)
CN1CCCCCNc2nc(ncc2Cl)Nc2cccc(c2)C1 [Compound 10, 1^5-chloro-5-methyl-2,5,11-triaza-1(2,4)-pyrimidina-3(1,3)-benzene cycloundecane]	< 0.1 µM	25 to 49%	< 0.25 µM	–	–	–	–	0.25 to 1 µM	1 to 5 µM	0.25 to 1 µM
